From patent US6103767A, “Physiologically active substances TKR1785's, process for the preparation thereof, and microbe” (Takara Shuzo Co., Ltd., priority 1996, dated 2000)
Values after ≈ are worked out from the molar mass of the structure shown.

Key:
[1] = system: Candida albicans TIMM0136; experiment: Antifungal activity, liquid medium dilution method; type: cell-based; conditions: Candida albicans TIMM0136, YNBG medium; for IC50: partial inhibition of growth, read-out: 50% inhibitory concentration (in parentheses); for MIC: substantially complete inhibition of growth, read-out: Minimal inhibitory concentration
Procedure: (§1) The antifungal activity of the above substance TKR1785 against various microorganisms was investigated. Using the liquid medium dilution method, the concentration which caused substantially complete Inhibition of growth was determined as minimal inhibitory concentration (μg/ml). The concentration causing a partial inhibition of growth was also determined as 50% inhibitory concentration (μg/ml) and is shown in parentheses of table 2. In the table, YNBG represents a medium containing 0.67% of yeast nitrogen base (Difco) and 1% of glucose. BHI represents a medium containing 0.5% of brain heart infusion bouillon (Nissui Pharmaceutical). YNBG-Tween represents a medium containing 0.67% of yeast nitrogen base, 0.5% bactocasitone, 2% of glucose, and 1% of Tween 40.

[2] = system: Cryptococcus neoformans TIMM0354; experiment: Antifungal activity, liquid medium dilution method; type: cell-based; conditions: Cryptococcus neoformans TIMM0354, YNBG medium; for IC50: read-out: 50% inhibitory concentration (in parentheses); for MIC: read-out: Minimal inhibitory concentration
Procedure: as §1

Candida kefir TIMM0301 = experiment: Antifungal activity, liquid medium dilution method; type: cell-based; conditions: Candida kefir TIMM0301, YNBG medium; for MIC: read-out: Minimal inhibitory concentration
Procedure: as §1

[3] = system: Aspargillus fumigatus TIMM1776; experiment: Antifungal activity, liquid medium dilution method; type: cell-based; conditions: Aspargillus fumigatus TIMM1776, BHI medium; for IC50: read-out: 50% inhibitory concentration (in parentheses); for MIC: read-out: Minimal inhibitory concentration
Procedure: as §1

ICR mice = experiment: Toxicity in mice, intraperitoneal; type: in vivo; conditions: intraperitoneally, 50 mg/kg
[4] = system: leukotriene (LT) C4 synthase (derived from the guinea-pig lung); experiment: LTC4 synthase inhibitory activity (yield of LTC4 from LTA4 by RIA); type: biochemical
Procedure: (§2) The inhibitory activity of TKR1785-I against phospholipase A2 (derived from porcine pancreas) and leukotriene (LT) C4 synthase (derived from the guinea-pig lung), which are enzymes related to the immune system, was determined. Phospholipase A2 activity was assayed for a hexane extract under acidic conditions by determining the [^14 C]palmitic acid released from [^14 C]phosphatidylcholine. LTC4 synthase activity was assayed by determining the yield of LTC4 from LTA4 by the RIA method.

[5] = system: Malassezia furfur TIMM2782; experiment: Antifungal activity, liquid medium dilution method; type: cell-based; conditions: Malassezia furfur TIMM2782, YNBG-Tween medium; read-out: 50% inhibitory concentration (in parentheses)
Procedure: as §1

[6] = system: phospholipase A2 (derived from porcine pancreas); experiment: Phospholipase A2 inhibitory activity ([14C]palmitic acid release from [14C]phosphatidylcholine); type: biochemical
Procedure: as §2

[7] = Solubility in various solvents; type: physicochemical
[8] = system: Mixed lymphocyte reaction (C57BL/6 responder cells, BALB/c stimulator cells); experiment: Mixed lymphocyte reaction (MLR) inhibitory activity, 3H-thymidine uptake; type: cell-based, mice; conditions: mouse spleen cells, 3H-thymidine uptake vs sample-free group, read-out: 50% inhibitory concentration, MLR-inhibitory activity
Procedure: From C57BL/6 and BALB/c mice, the spleen was isolated and homogenized in a medium to provide a cell suspension. The cell suspension derived from C57BL/6 mice was passed through a nylon wool column to prepare a T cell-rich fraction (responder cells). The BALB/c-derived cell suspension was irradiated with X-rays to prepare stimulator cells. The responder cells and stimulator cells were mixed in a ratio of 1:1 and incubated in a CO2 incubator for 4 days. Following addition of 3H-thymidine, the cells were further culturen overnight. The cells were then recovered and the amount of ^3 H-thymidine uptake was determined. The samples (500, 125, 31.2, and 7.8 μg/ml solutions of dimethyl sulfoxide diluted with the medium) were respectively added in a proportion of 0.5% at mixing the responder cells with the stimulator cells to final concentrations of 25 to 0.039 μg/ml. The inhibitory activity was determined by comparison with the 3H-thymidine uptake in the sample-free group.

| SMILES | IC50 [1] [µg/mL] | MIC [1] [µg/mL] | IC50 [2] [µg/mL] | MIC [2] [µg/mL] | IC50 (Candida kefir TIMM0301; read-out: 50% inhibitory concentration (in parentheses)) [µg/mL] | MIC (Candida kefir TIMM0301) [µg/mL] | IC50 [3] [µg/mL] | MIC [3] [µg/mL] | Toxic response (ICR mice) | Inhibition (%) ([4]; test concentration 30 μg/ml) | Inhibition (%) ([4]; test concentration 300 μg/ml) | IC50 [5] [µg/mL] | Inhibition (%) ([6]; Phospholipase A2, test concentration 10 μg/ml) | Inhibition (%) ([6]; Phospholipase A2, test concentration 100 μg/ml) | Solubility in chloroform and hexane ([7]; chloroform, hexane) | Solubility in methanol and water ([7]; methanol, water) | IC50 [8] [µg/mL] |
| --- | --- | --- | --- | --- | --- | --- | --- | --- | --- | --- | --- | --- | --- | --- | --- | --- | --- |
| CCCCCCCCCCCCCC(O)CC(O)C(N)CC(=O)N[C@H](C(=O)NC(CO)CO)[C@@H](C)CC (single isomer, unassigned) [TKR1785-II] | 6.25 (≈ 11.8 µM) | 12.5 (≈ 23.5 µM) | 6.25 (≈ 11.8 µM) | 12.5 (≈ 23.5 µM) | 6.25 (≈ 11.8 µM) | 12.5 (≈ 23.5 µM) | 25 (≈ 47 µM) | 50 (≈ 94 µM) | no toxic response was found |  |  |  |  |  |  |  |  |
| CCCCCCCCCCCCCC(O)CC(O)C(N)CC(=O)N[C@H](C(=O)NC(CO)CO)C(C)C (single isomer, unassigned) [TKR1785-I] | 6.25 (≈ 12.1 µM) | 12.5 (≈ 24.1 µM) | 3.13 (≈ 6.05 µM) | 6.25 (≈ 12.1 µM) |  | 6.25 (≈ 12.1 µM) | 3.13 (≈ 6.05 µM) | 25 (≈ 48.3 µM) | no toxic response was found | 21 | 98 | 12.5 (≈ 24.1 µM) | 33 | 92 | only sparingly soluble in chloroform and hexane | soluble in methanol and water | 0.41 (≈ 0.792 µM) |
